Results reported in PubChem BioAssay AID1963846 (Molecular Pharmacology Branch, DTP, NCI, 2024).
pIC50: −log10 of the molar value.

System: 454973-116-R2-J3-PDC complex spheroid viability
Assay: Anticancer human tumor 454973-116-R2-J3-PDC patient-derived pancreatic carcinoma cell line growth inhibition [POLQ]
Settings: for pIC50: curve of first compound; for viability, T/C: stronger effect = lower value; active = viability on the fitted dose curve at most 10% of control; inactive = the rest
In short: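 Growth inhibition in 3D: complex spheroids (tumor PDC, HUVEC, MSC) treated with POLQ inhibitor combinations; where Cmax unknown, highest tested concentration 10 microM, except SN-38 at 1 microM.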

[1] = second compound 0.0316 µM, first compound 0.00949 µM
[2] = second compound 0.0316 µM, first compound 0.03 µM
[3] = second compound 0.0316 µM, first compound 0.0949 µM
[4] = second compound 0.0316 µM, first compound 0.3 µM
[5] = second compound 0.0316 µM, first compound 0.949 µM
[6] = second compound 0.0316 µM, first compound 3 µM
[7] = second compound 0.1 µM, first compound 0.00949 µM
[8] = second compound 0.1 µM, first compound 0.03 µM
[9] = second compound 0.1 µM, first compound 0.0949 µM
[10] = second compound 0.1 µM, first compound 0.3 µM
[11] = second compound 0.1 µM, first compound 0.949 µM
[12] = second compound 0.1 µM, first compound 3 µM
[13] = second compound 0.316 µM, first compound 0.00949 µM
[14] = second compound 0.316 µM, first compound 0.03 µM
[15] = second compound 0.316 µM, first compound 0.0949 µM
[16] = second compound 0.316 µM, first compound 0.3 µM
[17] = second compound 0.316 µM, first compound 0.949 µM
[18] = second compound 0.316 µM, first compound 3 µM
[19] = second compound 1 µM, first compound 0.00949 µM
[20] = second compound 1 µM, first compound 0.03 µM
[21] = second compound 1 µM, first compound 0.0949 µM
[22] = second compound 1 µM, first compound 0.3 µM
[23] = second compound 1 µM, first compound 0.949 µM
[24] = second compound 1 µM, first compound 3 µM
[25] = second compound 3.16 µM, first compound 0.00949 µM
[26] = second compound 3.16 µM, first compound 0.03 µM
[27] = second compound 3.16 µM, first compound 0.0949 µM
[28] = second compound 3.16 µM, first compound 0.3 µM
[29] = second compound 3.16 µM, first compound 0.949 µM
[30] = second compound 3.16 µM, first compound 3 µM
[31] = second compound 10 µM, first compound 0.00949 µM
[32] = second compound 10 µM, first compound 0.03 µM
[33] = second compound 10 µM, first compound 0.0949 µM
[34] = second compound 10 µM, first compound 0.3 µM
[35] = second compound 10 µM, first compound 0.949 µM
[36] = second compound 10 µM, first compound 3 µM
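Also: spheroids exposed to drugs for seven days before measurement.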
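For viability, T/C in this document: percent viability relative to DMSO vehicle control wells taken as 100%.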

CC(=O)O[C@H]1C(=O)[C@@]2(C)[C@H]([C@H](OC(=O)c3ccccc3)[C@]3(O)C[C@H](OC(=O)[C@H](O)[C@@H](NC(=O)c4ccccc4)c4ccccc4)C(C)=C1C3(C)C)[C@]1(OC(C)=O)CO[C@@H]1C[C@@H]2O + COC1C(OC(N)=O)C(O)C(Oc2ccc3c(O)c(NC(=O)c4ccc(O)c(CC=C(C)C)c4)c(=O)oc3c2C)OC1(C)C
inactive: viability, T/C [1] 11.9% | viability, T/C [7] 12.8% | viability, T/C [13] 10.7% | viability, T/C [19] 13.2% | viability, T/C [25] 11.1% | viability, T/C [31] 12.8%
> 8.02: pIC50 (second compound 0.0316 µM) | pIC50 (second compound 0.1 µM) | pIC50 (second compound 0.316 µM) | pIC50 (second compound 1 µM) | pIC50 (second compound 3.16 µM) | pIC50 (second compound 10 µM)
active: viability, T/C [2] 7.88% | viability, T/C [3] 6.54% | viability, T/C [4] 5.33% | viability, T/C [5] 6.41% | viability, T/C [6] 7.66% | viability, T/C [8] 5.37% | viability, T/C [9] 5.19% | viability, T/C [10] 5.57% | viability, T/C [11] 5.27% | viability, T/C [12] 3.86% | viability, T/C [14] 5.28% | viability, T/C [15] 6.4% | viability, T/C [16] 4.53% | viability, T/C [17] 6.27% | viability, T/C [18] 5.12% | viability, T/C [20] 5.82% | viability, T/C [21] 6.61% | viability, T/C [22] 5.98% | viability, T/C [23] 5.03% | viability, T/C [24] 5.86% | viability, T/C [26] 7.33% | viability, T/C [27] 4.63% | viability, T/C [28] 3.97% | viability, T/C [29] 3.87% | viability, T/C [30] 4.77% | viability, T/C [32] 4.79% | viability, T/C [33] 7.63% | viability, T/C [34] 5.47% | viability, T/C [35] 3.92% | viability, T/C [36] 5.39%

CC(=O)O[C@H]1C(=O)[C@@]2(C)[C@H]([C@H](OC(=O)c3ccccc3)[C@]3(O)C[C@H](OC(=O)[C@H](O)[C@@H](NC(=O)c4ccccc4)c4ccccc4)C(C)=C1C3(C)C)[C@]1(OC(C)=O)CO[C@@H]1C[C@@H]2O + Nc1ccc(C#CCN(C(=O)Cc2ncc(C(F)(F)F)cc2C(F)(F)F)c2ccc(F)cc2)nn1
> 8.02: pIC50 (second compound 0.0316 µM) | pIC50 (second compound 0.1 µM) | pIC50 (second compound 0.316 µM) | pIC50 (second compound 1 µM) | pIC50 (second compound 3.16 µM) | pIC50 (second compound 10 µM)
active: viability, T/C [1] 6.03% | viability, T/C [2] 5.37% | viability, T/C [3] 4.33% | viability, T/C [4] 4.12% | viability, T/C [5] 5.17% | viability, T/C [6] 4.92% | viability, T/C [7] 6.43% | viability, T/C [8] 5.72% | viability, T/C [9] 5.37% | viability, T/C [10] 3.72% | viability, T/C [11] 4.36% | viability, T/C [12] 5.13% | viability, T/C [13] 6.26% | viability, T/C [14] 5.71% | viability, T/C [15] 3.79% | viability, T/C [16] 4.86% | viability, T/C [17] 4.32% | viability, T/C [18] 5.03% | viability, T/C [19] 6.64% | viability, T/C [20] 7.67% | viability, T/C [21] 5.72% | viability, T/C [22] 4.36% | viability, T/C [23] 4.31% | viability, T/C [24] 4.88% | viability, T/C [25] 6.84% | viability, T/C [26] 4.76% | viability, T/C [27] 4.25% | viability, T/C [28] 4.05% | viability, T/C [29] 5.59% | viability, T/C [30] 4.37% | viability, T/C [31] 6.5% | viability, T/C [32] 4.13% | viability, T/C [33] 4.66% | viability, T/C [34] 4.52% | viability, T/C [35] 4.25% | viability, T/C [36] 4.89%
